# Results as given in US9708336B2, “Metallo-beta-lactamase inhibitors” (priority 2014, dated 2017).
# pIC50: −log10 of the molar value. Read-outs that look alike come from different tables or passages of the source.
# Experiments:
# [1] = system: Serratia marcescens expressing IMP-1 (CL5741); test: Antibiotic potentiation activity: synergistic concentration (MITC95) with imipenem, OD600 growth; assay type: cell-based; details: for Serratia marcescens expressing IMP-1 (CL5741) MITC95: concentration giving 95% inhibition of bacterial growth
# Procedure, shortened: (§1)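 Each strain, suspended in saline from overnight colonies and diluted 1:100 into 1.1× CAMHB, is dosed with imipenem at 4 μg/ml (or 1 μg/ml) plus compound, incubated 22–24 h at 35 °C and read by absorbance.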
# [2] = system: Escherichia coli expressing NDM-1 (CLB30016); test: as above; assay type: cell-based; details: for Escherichia coli expressing NDM-1 (CLB 30016) MITC95: concentration giving 95% inhibition of bacterial growth
# Procedure, shortened: as §1
# [3] = system: Klebsiella pneumoniae expressing VIM-1 (IHMA599644); test: as above; assay type: cell-based; details: for Klebsiella pneumoniae expressing VIM-1 (IHMA 599644) MITC95: concentration giving 95% inhibition of bacterial growth
# Procedure, shortened: as §1
# VIM-1 = VIM-1 (Pseudomonas aeruginosa (strain ATCC 15692 / DSM 22644 / CIP 104116 / JCM 14847 / LMG 12228 / 1C / PRS 101 / PAO1), UniProt A0A0F7KYQ8); test: Enzyme activity: determination of IC50, fluorescence assay with CCF2-FA substrate (VIM-1); assay type: biochemical
# NDM-1 = NDM-1 (Klebsiella pneumoniae, UniProt C7C422); test: biochemical; assay type: biochemical
# Sequence of NDM-1 (C7C422 whole entry, looked up, species assumed): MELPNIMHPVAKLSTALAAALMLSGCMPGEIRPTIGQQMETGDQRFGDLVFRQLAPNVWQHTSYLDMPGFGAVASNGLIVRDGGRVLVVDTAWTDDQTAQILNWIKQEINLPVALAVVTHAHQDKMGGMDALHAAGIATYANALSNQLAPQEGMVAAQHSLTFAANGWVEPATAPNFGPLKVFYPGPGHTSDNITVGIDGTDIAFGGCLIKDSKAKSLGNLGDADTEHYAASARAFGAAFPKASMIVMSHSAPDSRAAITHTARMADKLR
# IMP-1 = IMP-1 (Serratia marcescens, UniProt P52699); test: biochemical; assay type: biochemical; details: read-out: IMP-1 IC50
# Sequence of IMP-1 (P52699 whole entry, looked up): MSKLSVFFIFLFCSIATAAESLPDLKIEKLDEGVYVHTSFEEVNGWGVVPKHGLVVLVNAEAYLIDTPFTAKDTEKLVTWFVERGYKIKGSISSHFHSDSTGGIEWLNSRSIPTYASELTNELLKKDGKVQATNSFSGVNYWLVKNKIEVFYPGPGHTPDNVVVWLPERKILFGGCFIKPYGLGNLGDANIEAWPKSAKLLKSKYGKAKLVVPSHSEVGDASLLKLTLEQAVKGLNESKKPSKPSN
# [4] = Serratia marcescens expressing IMP-1 (CL5741), 95% growth inhibition
# [5] = Escherichia coli expressing NDM-1 (CLB30016), 95% growth inhibition
# [6] = Klebsiella pneumoniae expressing VIM-1 (IHMA599644), 95% growth inhibition
# [7] = VIM-1 enzyme, CCF2-FA fluorescence assay, read-out: VIM-1 IC50
# [8] = NDM-1 enzyme, CCF2-FA fluorescence assay, read-out: NDM-1 IC50
# [9] = IMP-1 enzyme, CCF2-FA fluorescence assay
# [10] = VIM-1 IC50, VIM-1 enzyme, CCF2-FA fluorescence assay
# [11] = Serratia marcescens CL5741 (IMP-1), 95% growth inhibition
# [12] = (CLB30016, NDM-1), 95% growth inhibition
# [13] = Klebsiella pneumoniae IHMA599644 (VIM-1), 95% growth inhibition
# [14] = VIM-1 enzyme, CCF2-FA substrate, read-out: VIM-1 IC50
# [15] = NDM-1 enzyme, CCF2-FA substrate, read-out: NDM-1 IC50
# [16] = IMP-1 enzyme, CCF2-FA substrate
# [17] = VIM-1 IC50, VIM-1 enzyme, CCF2-FA substrate
# [18] = fluorescence assay with CCF2-FA substrate, read-out: VIM-1 IC50
# [19] = fluorescence assay with CCF2-FA substrate, read-out: NDM-1 IC50
# [20] = fluorescence assay with CCF2-FA substrate
# [21] = VIM-1 IC50, fluorescence assay with CCF2-FA substrate
# [22] = CL5741 (IMP-1), 95% inhibition of bacterial growth
# [23] = CLB30016 (NDM-1), 95% inhibition of bacterial growth
# [24] = IHMA599644 (VIM-1), 95% inhibition of bacterial growth
smiles,measurement,setting,value
"NS(=O)(=O)c1cccc(-c2snc3ncccc23)c1-c1nnn[nH]1 [Example 413, 3-isothiazolo[3,4-b]pyridin-3-yl-2-(1H-tetrazol-5-yl)benzenesulfonamide]",Serratia marcescens MITC95,[1]; [4],9.375 µM
same,Escherichia coli MITC95,[2]; [5],0.5859 µM
same,Klebsiella pneumoniae MITC95,[3]; [6],4.688 µM
same,pIC50,VIM-1; [7],8.68
same,pIC50,NDM-1; [8],8.67
same,pIC50,IMP-1; [9],6.47
"CC(NCc1ccc(-c2cccc(S(N)(=O)=O)c2-c2nnn[nH]2)cc1)c1nn[nH]n1 (stereo not drawn) [Example 353, 2-(1H-tetrazol-5-yl)-4′-({[1-(2H-tetrazol-5-yl)ethyl]amino}methyl)biphenyl-3-sulfonamide]",Serratia marcescens MITC95,[1]; [4],1.172 µM
same,Escherichia coli MITC95,[2]; [5],2.344 µM
same,Klebsiella pneumoniae MITC95,[3]; [6],100 µM
same,pIC50,VIM-1; [10],6.16
same,pIC50,NDM-1; [8],8.39
same,pIC50,IMP-1; [9],7.55
"N=C(N)NCc1ccc(-c2ccc(C(F)(F)F)c(S(N)(=O)=O)c2-c2nn[nH]n2)cc1 [Example 440, 4′-(guanidinomethyl)-2-(2H-tetrazol-5-yl)-4-(trifluoromethyl)-[1,1′-biphenyl]-3-sulfonamide]",Serratia marcescens MITC95,[1]; [4],0.0625 µM
same,Escherichia coli MITC95,[2]; [5],0.25 µM
same,Klebsiella pneumoniae MITC95,[3]; [6],0.7656 µM
same,pIC50,VIM-1; [7],9.45
same,pIC50,NDM-1; [8],8.41
same,pIC50,IMP-1; [9],8.47
"NS(=O)(=O)c1c(C(F)(F)F)ccc(-c2ccc(CN3CCNCC3)cc2)c1-c1nnn[nH]1 [Example 718, 4′-(piperazin-1-ylmethyl)-2-(1H-tetrazol-5-yl)-4-(trifluoromethyl)biphenyl-3-sulfonamide]",Serratia marcescens MITC95,[1]; [11],6.25 µM
same,Escherichia coli MITC95,[2]; [12],12.5 µM
same,Klebsiella pneumoniae MITC95,[3]; [13],25 µM
same,pIC50,VIM-1; [14],8.76
same,pIC50,NDM-1; [15],8.82
same,pIC50,IMP-1; [16],8.62
"NCCN1CCC(c2ccc(-c3cccc(S(N)(=O)=O)c3-c3nnn[nH]3)cc2)CC1 [Example 616, 3-[4-[1-(2-aminoethyl)-4-piperidyl]phenyl]-2-(1H-tetrazol-5-yl)benzenesulfonamide]",Serratia marcescens MITC95,[1]; [11],0.5859 µM
same,Escherichia coli MITC95,[2]; [12],0.3906 µM
same,Klebsiella pneumoniae MITC95,[3]; [13],75 µM
same,pIC50,VIM-1; [14],6.56
same,pIC50,NDM-1; [15],8.36
same,pIC50,IMP-1; [16],7.84
"NCCN[C@H]1CC[C@H](c2ccc(C(F)(F)F)c(S(N)(=O)=O)c2-c2nnn[nH]2)CC1 [Example 700, 3-{4-[(2-aminoethyl)amino]cyclo-hexyl}-2-(1H-tetrazol-5-yl)-6-(trifluoromethyl)benzene sulfonamide]",Serratia marcescens MITC95,[1]; [11],3.125 µM
same,Escherichia coli MITC95,[2]; [12],0.3906 µM
same,Klebsiella pneumoniae MITC95,[3]; [13],1.563 µM
same,pIC50,VIM-1; [17],9.02
same,pIC50,NDM-1; [15],8.40
same,pIC50,IMP-1; [16],7.78
"NC(=O)CCc1ccc(-c2ccc(C(F)(F)F)c(S(N)(=O)=O)c2-c2nn[nH]n2)cc1 [Example 449, 3-(3′-sulfamoyl-2′-(2H-tetrazol-5-yl)-4′-(trifluoromethyl)-[1,1′-biphenyl]-4-yl)propanamide]",Serratia marcescens MITC95,[1]; [4],0.1953 µM
same,Escherichia coli MITC95,[2]; [5],0.7813 µM
same,Klebsiella pneumoniae MITC95,[3]; [6],6.25 µM
same,pIC50,VIM-1; [10],9.09
same,pIC50,NDM-1; [8],9.18
same,pIC50,IMP-1; [9],9.27
"NC[C@H]1CC[C@@H](Cc2ccc(-c3ccc(C4CNC4)cc3)c(-c3nnn[nH]3)c2S(N)(=O)=O)CC1 [Example 602, 4-(((1s,4s)-4-(aminomethyl)cyclohexyl)methyl)-4′-(azetidin-3-yl)-2-(1H-tetrazol-5-yl)-[1,1′-biphenyl]-3-sulfonamide]",Serratia marcescens MITC95,[1]; [11],3.125 µM
same,Escherichia coli MITC95,[2]; [12],1.563 µM
same,Klebsiella pneumoniae MITC95,[3]; [13],1.563 µM
same,pIC50,VIM-1; [17],8.61
same,pIC50,NDM-1; [15],8.40
same,pIC50,IMP-1; [16],7.68
"Nc1ncc2c(-c3ccc(C(F)(F)F)c(S(N)(=O)=O)c3-c3nn[nH]n3)cccc2n1 [Example 556, 3-(2-aminoquinazolin-5-yl)-2-(2H-tetrazol-5-yl)-6-(trifluoromethyl)benzenesulfonamide]",Serratia marcescens MITC95,[1]; [11],12.5 µM
same,Escherichia coli MITC95,[2]; [12],25 µM
same,Klebsiella pneumoniae MITC95,[3]; [13],12.5 µM
same,pIC50,VIM-1; [14],9.91
same,pIC50,NDM-1; [15],9.90
same,pIC50,IMP-1; [16],8.53
"C[N+]1(C)CCC(c2ccc(-c3cccc(S(N)(=O)=O)c3-c3nnn[nH]3)cc2)CC1.O=C([O-])C(F)(F)F [Example 33, 1,1-dimethyl-4-(3′-sulfamoyl-2′-(1H-tetrazol-5-yl)-[1,1′-biphenyl]-4-yl)piperidin-1-ium 2,2,2-trifluoroacetate]",Serratia marcescens expressing IMP-1 (CL5741) MITC95,[1],1.172 µM
same,Escherichia coli expressing NDM-1 (CLB 30016) MITC95,[2],1.172 µM
same,Klebsiella pneumoniae expressing VIM-1 (IHMA 599644) MITC95,[3],100 µM
same,pIC50,VIM-1; [18],6.08
same,pIC50,NDM-1; [19],7.78
same,pIC50,IMP-1; [20],7.15
"NS(=O)(=O)c1cccc(-c2cnc(N3CCCCC3)nc2)c1-c1nnn[nH]1 [Example 122, 3-(2-(piperidin-1-yl)pyrimidin-5-yl)-2-(1H-tetrazol-5-yl)benzenesulfonamide]",Serratia marcescens expressing IMP-1 (CL5741) MITC95,[1],4.688 µM
same,Escherichia coli expressing NDM-1 (CLB 30016) MITC95,[2],4.688 µM
same,Klebsiella pneumoniae expressing VIM-1 (IHMA 599644) MITC95,[3],>200 µM
same,pIC50,VIM-1; [18],6.60
same,pIC50,NDM-1; [19],8.51
same,pIC50,IMP-1; [20],7.20
"CC(C)[C@H](N)CN1CCC(c2ccc(-c3cccc(S(N)(=O)=O)c3-c3nnn[nH]3)cc2)CC1 [Example 615, 3-[4-[1-[(2S)-2-amino-3-methyl-butyl]-4-piperidyl]phenyl]-2-(1H-tetrazol-5-yl)benzenesulfonamide]",Serratia marcescens MITC95,[1]; [11],1.172 µM
same,Escherichia coli MITC95,[2]; [12],0.7813 µM
same,Klebsiella pneumoniae MITC95,[3]; [13],>200 µM
same,pIC50,VIM-1; [14],6.21
same,pIC50,NDM-1; [15],8.01
same,pIC50,IMP-1; [16],7.78
"N=C(N)NC1Cc2ccc(-c3ccc(C(F)(F)F)c(S(N)(=O)=O)c3-c3nn[nH]n3)cc2C1 (stereo not drawn) [Example 447, 3-(2-guanidino-2,3-dihydro-1H-inden-5-yl)-2-(2H-tetrazol-5-yl)-6-(trifluoromethyl)benzenesulfonamide]",Serratia marcescens MITC95,[1]; [4],0.125 µM
same,Escherichia coli MITC95,[2]; [5],1.086 µM
same,Klebsiella pneumoniae MITC95,[3]; [6],0.8906 µM
same,pIC50,VIM-1; [7],9.77
same,pIC50,NDM-1; [8],8.15
same,pIC50,IMP-1; [9],8.37
"NS(=O)(=O)c1c(C(F)(F)F)ccc([C@H]2CC[C@H](C3=NCCN3)CC2)c1-c1nnn[nH]1 [Example 506, 3-(trans 4-(4,5-dihydro-1H-imidazol-2-yl)cyclohexyl)-2-(1H-tetrazol-5-yl)-6-(trifluoromethyl)benzenesulfonamide]",Serratia marcescens MITC95,[1]; [11],6.25 µM
same,Escherichia coli MITC95,[2]; [12],4.688 µM
same,Klebsiella pneumoniae MITC95,[3]; [13],100 µM
same,pIC50,VIM-1; [17],7.38
same,pIC50,NDM-1,8.65
same,pIC50,IMP-1; [16],7.45
"NS(=O)(=O)c1nccc(N2CCC(c3ccncc3)CC2)c1-c1nnn[nH]1 [Example 217, 4-(4-pyridin-4-ylpiperidin-1-yl)-3-(1H-tetrazol-5-yl)pyridine-2-sulfonamide]",Serratia marcescens expressing IMP-1 (CL5741) MITC95,[1],12.5 µM
same,Escherichia coli expressing NDM-1 (CLB 30016) MITC95,[2],4.688 µM
same,Klebsiella pneumoniae expressing VIM-1 (IHMA 599644) MITC95,[3],150 µM
same,pIC50,VIM-1; [21],7.31
same,pIC50,NDM-1; [19],7.37
same,pIC50,IMP-1; [20],6.32
"NC1CCCC1N1CC(c2ccc(-c3ccc(C(F)(F)F)c(S(N)(=O)=O)c3-c3nnn[nH]3)cc2)C1 (stereo not drawn) [Example 811, 4′-[1-(2-aminocyclopentyl)azetidin-3-yl]-2-(1H-tetrazol-5-yl)-4-(trifluoromethyl)biphenyl-3-sulfonamide]",Serratia marcescens MITC95,[1]; [22],6.25 µM
same,Escherichia coli MITC95,[2]; [23],1.563 µM
same,Klebsiella pneumoniae MITC95,[3]; [24],100 µM
same,pIC50,VIM-1; [21],7.55
same,pIC50,NDM-1; [19],8.32
same,pIC50,IMP-1; [20],8.03
"NC1CC(N2CCC(c3ccc(-c4ccc(C(F)(F)F)c(S(N)(=O)=O)c4-c4nnn[nH]4)cc3)CC2)C1 (stereo not drawn) [Example 790, 4′-[1-(3-aminocyclobutyl)piperidin-4-yl]-2-(1H-tetrazol-5-yl)-4-(trifluoromethyl)biphenyl-3-sulfonamide]",Serratia marcescens MITC95,[1]; [22],3.125 µM
same,Escherichia coli MITC95,[2]; [23],0.7813 µM
same,Klebsiella pneumoniae MITC95,[3]; [24],12.5 µM
same,pIC50,VIM-1; [18],8.14
same,pIC50,NDM-1; [19],8.45
same,pIC50,IMP-1; [20],9.06
"NS(=O)(=O)c1cccc(-c2cnc3ccccc3c2)c1-c1nnn[nH]1 [Example 165, 3-(quinolin-3-yl)-2-(1H-tetrazol-5-yl)benzenesulfonamide]",Serratia marcescens expressing IMP-1 (CL5741) MITC95,[1],9.375 µM
same,Escherichia coli expressing NDM-1 (CLB 30016) MITC95,[2],0.5859 µM
same,Klebsiella pneumoniae expressing VIM-1 (IHMA 599644) MITC95,[3],37.5 µM
same,pIC50,VIM-1; [18],7.94
same,pIC50,NDM-1; [19],8.91
same,pIC50,IMP-1; [20],6.67
